1 compound from patent publication US20070243180A1, “Composition Containing Reduced Coenzyme Q” (priority 2003, published 2007) can be followed below.

The nature of data set [1]: Stability testing of reduced coenzyme Q10 against autooxidation on storage in air, protected against light. Format: physicochemical. As to conditions: in the presence of air, at 4 weeks after starting storage, HPLC. On the procedure:
In the examples, a reduced coenzyme Q concentration and an oxidized coenzyme Q concentration were determined by the following HPLC analysis. Column; SYMMETRY C18 (product of Waters Corporation), 250 mm (length), 4.6 mm (inside diameter), mobile phase; C2H5OH:CH3OH=4:3 (v:v), detection wavelength; 210 nm, flow rate; 1 ml/min, retention time for a reduced coenzyme Q10; 9.1 min, retention time for an oxidized coenzyme Q10; 13.3 min. Reduced coenzyme Q10 bulk powder (Q-OH bulk powder) containing 2% of oxidized coenzyme Q10 and the powdery compositions I to IV respectively obtained in Examples 1 to 4 were subjected to stability testing in the following manner. Thus, each composition (test sample) was placed in a microtube and stored, in a state protected against light, at 23° C. or 40° C. in the presence of air. After 1, 2 or 4 weeks of storage, 25 mg of each sample was sampled and dissolved in ethanol, the concentrations of oxidized coenzyme Q10 and reduced coenzyme Q10 were measured by HPLC and the percentage of reduced coenzyme Q10 in total coenzyme Q10 as contained in the composition (test sample) was determined.

A short description of data set [2]: Solubility testing in water. Format: physicochemical. As to conditions: 1 g in 100 ml of water, stirred at 5,000 rpm for 30 seconds, observed after 1 hour of standing. On the procedure:
Coenzyme Q10 bulk powder (Q-OH bulk powder) containing 98% of reduced coenzyme Q10 and the powdery compositions obtained in Examples 1 to 4 were subjected to solubility testing in the following manner. Thus, 1 g of each composition (test sample) was added to 100 ml of water, and the mixture was stirred at 5,000 rpm for 30 seconds using a mixer and then allowed to stand.

Take `COc1c(O)c(C)c(C/C=C(\C)CC/C=C(\C)CC/C=C(\C)CC/C=C(\C)CC/C=C(\C)CC/C=C(\C)CC/C=C(\C)CC/C=C(\C)CC/C=C(\C)CCC=C(C)C)c(O)c1OC` [reduced coenzyme Q10]: the “residual reduced coenzyme Q10 percentage relative to total coenzyme Q10 contained in the composition” value worked out at 41% in data set [1] (stored at 23° C.) and 11% in data set [1] (stored at 40° C.). Moreover, the Solubility in water entry was “Insoluble” in data set [2] and “insoluble, forming orange-colored oil drops floating on the water” in data set [2] (listed as Coenzyme Q10 bulk powder (Q-OH bulk powder)).
